According to ChEMBL document CHEMBL1201862, “PubChem BioAssay data set” (2004):
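Values below derive from 48-hour exposures of cells grown in 96-well plates, with endpoints linearly interpolated between the two concentrations bracketing the appropriate inhibition level. GI50 marks 50% less growth.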 Calls of active or inactive are those of the source. Cut-off read from the data, not from the text of the source: active = GI50 up to about 1.1 µM and inactive = higher.

Columns and labels:
Assay in all cases: DTP human tumour cell line panel, 48 h
KM12 = test system: KM12
SK-MEL-2 = test system: SK-MEL-2
LOX IMVI = test system: LOX IMVI
OVCAR-5 = test system: OVCAR-5
NCI/ADR-RES = test system: NCI/ADR-RES
NCI-H460 = test system: NCI-H460
HT-29 = test system: HT-29
A549 = test system: A549
CAKI-1 = test system: CAKI-1
UACC-62 = test system: UACC-62
HOP-92 = test system: HOP-92
SNB-75 = test system: SNB-75
Hs-578T = test system: Hs-578T
MDA-MB-435 = test system: MDA-MB-435
HOP-62 = test system: HOP-62
OVCAR-4 = test system: OVCAR-4
MOLT-4 = test system: MOLT-4
NCI-H226 = test system: NCI-H226

Compound | GI50 (KM12) | GI50 (SK-MEL-2) | GI50 (LOX IMVI) | GI50 (OVCAR-5) | GI50 (NCI/ADR-RES) | GI50 (NCI-H460) | GI50 (HT-29) | GI50 (A549) | GI50 (CAKI-1) | GI50 (UACC-62) | GI50 (HOP-92) | GI50 (SNB-75) | GI50 (Hs-578T) | GI50 (MDA-MB-435) | GI50 (HOP-62) | GI50 (OVCAR-4) | GI50 (MOLT-4) | GI50 (NCI-H226)
COc1ccc2nc3cc([N+](=O)[O-])ccc3c(Nc3ccc(S(=O)(=O)Nc4ncccn4)cc3)c2c1 | 31.7 µM (inactive) | > 43.4 µM (inactive) | > 73.8 µM (inactive) | > 100 µM (inactive) | > 100 µM (inactive) | 61.5 µM (inactive) | 26.5 µM (inactive) | > 100 µM (inactive) | > 100 µM (inactive) | > 65.9 µM (inactive) | > 44.7 µM (inactive) | 62.2 µM (inactive) | 12.4 µM (inactive) | > 67.3 µM (inactive) | > 64.9 µM (inactive) | > 100 µM (inactive) | > 20.2 µM (inactive) | 69.3 µM (inactive)
CC(Oc1ccccc1Cl)C(=O)NN1C(=O)CSC1c1ccccc1 (stereo unspecified) | > 100 µM (inactive) | > 100 µM (inactive) | > 100 µM (inactive) | > 100 µM (inactive) | > 100 µM (inactive) | > 100 µM (inactive) | > 100 µM (inactive) | 62.7 µM (inactive) | > 100 µM (inactive) | > 100 µM (inactive) | 57.3 µM (inactive) | > 100 µM (inactive) | > 100 µM (inactive) | 75.3 µM (inactive) | > 100 µM (inactive) | > 100 µM (inactive) | 29.8 µM (inactive) | > 100 µM (inactive)
CC(C)(C)[Si](C)(C)O[C@@H](C(=O)OC1C=CCCC1)[C@@H](NC(=O)c1ccccc1)c1ccccc1 (stereo partly specified) | 25.6 µM (inactive) | 18 µM (inactive) | 16.7 µM (inactive) | 24.4 µM (inactive) | 28.6 µM (inactive) | 19.9 µM (inactive) | 14.3 µM (inactive) | 17.6 µM (inactive) | 48.6 µM (inactive) | 26.8 µM (inactive) | 8.99 µM (inactive) | 27.7 µM (inactive) | 53.6 µM (inactive) | 29.3 µM (inactive) | 18.4 µM (inactive) | 21.5 µM (inactive) | 14.7 µM (inactive) | 37.8 µM (inactive)
Oc1cc(O)c2ccc(-c3ccc(O)c(O)c3)[o+]c2c1 | > 100 µM (inactive) | > 100 µM (inactive) | > 100 µM (inactive) | > 100 µM (inactive) | > 100 µM (inactive) | > 100 µM (inactive) | > 100 µM (inactive) | > 100 µM (inactive) | > 100 µM (inactive) | > 100 µM (inactive) | > 100 µM (inactive) | > 100 µM (inactive) | > 100 µM (inactive) | > 100 µM (inactive) | > 100 µM (inactive) | > 100 µM (inactive) | > 100 µM (inactive) | > 100 µM (inactive)
Cc1ccc(-c2cc(=O)c(=O)[nH][nH]2)cc1 | > 100 µM (inactive) | > 100 µM (inactive) | > 100 µM (inactive) | > 100 µM (inactive) | > 100 µM (inactive) | > 100 µM (inactive) | > 100 µM (inactive) | > 100 µM (inactive) | > 100 µM (inactive) | > 100 µM (inactive) | > 100 µM (inactive) | 18 µM (inactive) | 68.4 µM (inactive) | > 100 µM (inactive) | > 100 µM (inactive) | > 100 µM (inactive) | > 100 µM (inactive) | > 100 µM (inactive)
O=C(CC(O)c1cccnc1)CC(O)c1cccnc1 (stereo unspecified) | 11.1 µM (inactive) | 18.9 µM (inactive) | 5.18 µM (inactive) | 24.2 µM (inactive) | 24 µM (inactive) | 19.7 µM (inactive) | 7.05 µM (inactive) | 20.6 µM (inactive) | 17.7 µM (inactive) | 16.6 µM (inactive) | 17.4 µM (inactive) | 14.5 µM (inactive) | 28.4 µM (inactive) | 16.4 µM (inactive) | 21.9 µM (inactive) | 20.7 µM (inactive) | 3.49 µM (inactive) | 45.7 µM (inactive)
CC(C)/C(Cl)=N\OC(=O)Nc1ccc(C#N)cc1 | 15.8 µM (inactive) | 11.8 µM (inactive) | 3.3 µM (inactive) | 15.1 µM (inactive) | 17.1 µM (inactive) | 17.3 µM (inactive) | 21 µM (inactive) | 20 µM (inactive) | 5.58 µM (inactive) | 17 µM (inactive) | 1.56 µM (inactive) | 17.7 µM (inactive) | 15.1 µM (inactive) | 8.04 µM (inactive) | 17.5 µM (inactive) | 1.63 µM (inactive) | 1.92 µM (inactive) | 13.1 µM (inactive)
O=c1oc2ccc([N+](=O)[O-])cc2cc1-c1csc(-c2ccccc2)n1 | > 100 µM (inactive) | > 100 µM (inactive) | > 100 µM (inactive) | > 100 µM (inactive) | > 100 µM (inactive) | > 100 µM (inactive) | > 100 µM (inactive) | > 100 µM (inactive) | > 100 µM (inactive) | > 100 µM (inactive) | > 100 µM (inactive) | 0.817 µM (active) | > 100 µM (inactive) | > 100 µM (inactive) | > 100 µM (inactive) | > 100 µM (inactive) | > 100 µM (inactive) | > 100 µM (inactive)
CC(C)(C)OC(=O)NCCC(=O)NC1(c2cc3ccccc3s2)CCCCC1 | 18.7 µM (inactive) | 18 µM (inactive) | 18.2 µM (inactive) | 19.7 µM (inactive) | 18.1 µM (inactive) | 14.8 µM (inactive) | 13.8 µM (inactive) | 15.9 µM (inactive) | 21.2 µM (inactive) | 20.6 µM (inactive) | 16.6 µM (inactive) | 17.4 µM (inactive) | 28.1 µM (inactive) | 17.3 µM (inactive) | 18.4 µM (inactive) | 13.4 µM (inactive) | 10.9 µM (inactive) | 21.3 µM (inactive)
Clc1ccc(Cc2nc3cc(Cl)c(Cl)cc3n2CC2CCCN3CCCCC23)cc1Cl (stereo unspecified) | 2.19 µM (inactive) | 6.34 µM (inactive) | 2.44 µM (inactive) | 3.13 µM (inactive) | 4.46 µM (inactive) | 3.1 µM (inactive) | 2.43 µM (inactive) | 4.93 µM (inactive) | 3.46 µM (inactive) | 2.28 µM (inactive) | 5.38 µM (inactive) | 4.53 µM (inactive) | 3.4 µM (inactive) | 3.83 µM (inactive) | 9.14 µM (inactive) | 3.4 µM (inactive) | 4.34 µM (inactive) | 7.16 µM (inactive)
COc1ccc2c(c1)c(=Cc1ccc(N(C)C)cc1)c1cc(-c3ccccc3)[n+](C)n12 | 0.448 µM (active) | 0.452 µM (active) | 0.374 µM (active) | 0.875 µM (active) | 3.66 µM (inactive) | 0.245 µM (active) | 0.171 µM (active) | 0.643 µM (active) | 1.49 µM (inactive) | 0.698 µM (active) | 0.187 µM (active) | 0.00269 µM (active) | 0.124 µM (active) | 0.369 µM (active) | 1.36 µM (inactive) | 1.28 µM (inactive) | 0.305 µM (active) | 0.15 µM (active)
C=C1C[C@@H]2CC[C@@]34CC5O[C@H]6C(O[C@H]7CC[C@H](CC(=O)O[C@@H]8[C@@H](C)[C@@H]9O[C@@H]%10C[C@]%11(C[C@@H]%12O[C@]%13(C[C@H](C)[C@@H]%14O[C@@H]%15CC(C(COC(C)=O)OC(C)=O)O[C@@H]%15C[C@@H]%14O%13)C[C@H](C)[C@@H]%12O%11)O[C@@H]%10C[C@@H]9O[C@H]8CC8O[C@@H](CC[C@@H]1O2)C[C@@H](C)C8(O)CO)O[C@@H]7[C@@H]6O3)[C@H]5O4 (stereo partly specified) | 0.327 µM (active) | 0.721 µM (active) | 0.432 µM (active) | > 1 µM (active) | > 1 µM (active) | 0.258 µM (active) |  | 0.413 µM (active) | 0.652 µM (active) | 0.242 µM (active) | > 1 µM (active) | 0.336 µM (active) | 0.272 µM (active) | 0.0826 µM (active) | > 1 µM (active) | > 1 µM (active) | > 0.548 µM (active) | 0.45 µM (active)
CC(=O)Nc1cc2c3c(c1)CCCN3CCC2 | > 100 µM (inactive) | > 100 µM (inactive) | > 100 µM (inactive) | > 100 µM (inactive) | > 100 µM (inactive) | > 100 µM (inactive) | > 100 µM (inactive) | > 100 µM (inactive) | > 100 µM (inactive) | > 100 µM (inactive) | > 100 µM (inactive) | 65.5 µM (inactive) | > 100 µM (inactive) | > 100 µM (inactive) |  | > 100 µM (inactive) | > 100 µM (inactive) | > 100 µM (inactive)
O=C1OCc2c1cc1cc3c(cc1c2-c1ccc2c(c1)OCO2)OCO3.O=C1OCc2cc3cc4c(cc3c(-c3ccc5c(c3)OCO5)c21)OCO4 | 11.1 µM (inactive) | 11.4 µM (inactive) | 14.2 µM (inactive) | 21 µM (inactive) | 4.68 µM (inactive) | 5.79 µM (inactive) | 7.23 µM (inactive) |  | 11.8 µM (inactive) | 8.55 µM (inactive) | 13.8 µM (inactive) | 10 µM (inactive) | 14.5 µM (inactive) | 1.87 µM (inactive) | 6.31 µM (inactive) | 18 µM (inactive) | 2.31 µM (inactive) | 9.77 µM (inactive)
CCc1cc(Cc2cc(CC)c(NC(=O)C(=O)CC(=O)c3sc(-c4cccnc4)nc3C)c(CC)c2)cc(CC)c1NC(=O)C(=O)CC(=O)c1sc(-c2cccnc2)nc1C | > 100 µM (inactive) | > 100 µM (inactive) | > 100 µM (inactive) | > 100 µM (inactive) | > 100 µM (inactive) | > 100 µM (inactive) | > 100 µM (inactive) | > 100 µM (inactive) | > 10 µM (inactive) | > 100 µM (inactive) | > 100 µM (inactive) | > 100 µM (inactive) | > 100 µM (inactive) | > 100 µM (inactive) |  | > 100 µM (inactive) | > 100 µM (inactive) | > 100 µM (inactive)
